Test results: US11371994B2, “Phosphorylated Akt-specific capture agents, compositions, and methods of using and making” (California Institute of Technology, priority 2013, dated 2022)
Square brackets hold non-standard residues; d marks the D form. Ends that are not written are not given here. dPra = C#CC[C@@H](N)C(=O)O

Each compound was assayed against T1, Akt (Homo sapiens, UniProt P31751) (assay: OVCAR3 lysate pull-down (immunoprecipitation) assay). Settings: eluents stained with pan-Akt antibody.
T1 construct: endogenous in cells; host or cells: OVCAR3
T1 sequence (P31751 whole entry): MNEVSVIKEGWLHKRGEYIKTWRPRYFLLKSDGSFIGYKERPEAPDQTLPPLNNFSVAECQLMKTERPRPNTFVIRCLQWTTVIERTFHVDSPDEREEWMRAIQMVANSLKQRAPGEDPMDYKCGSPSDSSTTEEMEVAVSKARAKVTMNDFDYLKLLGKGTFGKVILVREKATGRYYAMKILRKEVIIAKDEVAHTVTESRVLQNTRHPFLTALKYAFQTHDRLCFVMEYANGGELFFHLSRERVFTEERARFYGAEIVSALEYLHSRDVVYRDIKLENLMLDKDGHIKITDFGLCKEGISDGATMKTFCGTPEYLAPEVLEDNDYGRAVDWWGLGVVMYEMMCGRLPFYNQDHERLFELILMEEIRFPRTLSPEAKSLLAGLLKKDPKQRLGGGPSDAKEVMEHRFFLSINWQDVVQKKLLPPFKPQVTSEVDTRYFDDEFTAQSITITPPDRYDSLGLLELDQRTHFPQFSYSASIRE
Assay type: binding
Description: OVCAR3 cells (ATCC) were grown in RPMI-1640 media containing 20% fetal bovine serum. Passage three cells were grown to ˜80% confluence. Cells were lysed with lysis buffer (10 mM Tris-Cl (pH=7.5), 100 mM NaCl, 1% (v/v) Triton X-100, 0.1% SDS (w/v), 0.5% deoxycholate, 1 mM DTT, 1 mM EDTA, 1× PhosStop phosphatase inhibitors (Roche), 1× Complete protease inhibitors (Roche)) and the amount of protein measured using BCA Protein Assay Kit (Pierce Biotechnologies, Inc). Streptavidin-agarose resin solution (EMD) was swelled in TBST (25 mM tris chloride, pH=7.5, 150 mM NaCl, 0.05% Tween-20). Each of the biotinylated ligands was immobilized on the Streptavidin-agarose resin by adding 7.2 μL of 1 mM ligand stock (DMSO) to 10 μL of the swelled streptavidin-agarose resin. For the blank control, the resin was treated with 7.2 μL of 1 mM biotinylated acyl glycine. […] After shaking overnight at 4° C., 50 μM D-biotin was added to the resin to block any remaining sites. The resin was washed with TBST five times, for fifteen minutes each. The resin was then swelled in binding buffer for two hours. To each of the immobilized ligands, 200 μL OVCAR3 cell lysate (1.9 mg/ml) was added. The tubes were shaken at 4° C. for 18 hours. The beads were extensively washed, three times for fifteen minutes in binding buffer, three times (fifteen minutes) in TBST, and three times (fifteen minutes) in TBS to remove unbound proteins. The resin bound proteins were eluted by adding 40 μL of 2×SDS-PAGE sample loading buffer (BioRad) and heating at 95° C. for five minutes. A 1:10 diluted sample of lysate in sample loading buffer was prepared by mixing 1 μL of the sample with 9 μL sample loading buffer and denaturing the sample by heating at 95° C. for five minutes. 10 μL of each sample was loaded on a 12% SDS-PAGE gels (BioRad) and run for 80 minutes at 110 volts. Three identical gels were loaded and run at the same time. One gel was used for Coomassie staining with Coomassie Fluor Orange Protein Gel Stain (Molecular Probes) following the manufacturer's protocol. The two other gels were transferred to nitrocellulose membranes by the semidry transfer method, blocked for two hours at 4° C. with 5% non-fat milk, and treated overnight at 4° C. with a 1:1000 dilution of pan-Akt rabbit monoclonal antibody (Cell Signaling Technology) and a 1:1000 dilution of pS473 Akt rabbit monoclonal antibody (Cell Signaling Technology), respectively, in 0.5% non-fat milk. The membranes were washed and treated for an hour with a 1:10,000 dilution of monoclonal mouse anti-rabbit-HRP secondary antibody (Cell Signaling Technology) in 0.5% milk. After five washes of five minutes each with TBST and one wash of five minutes with TBS, the blots were developed with West Dura ECL substrate (Thermo Scientific) and imaged on film.

**Q.** Which “immunoprecipitation of Akt from OVCAR3 cell lysate” value (“immunoprecipitation of Akt” below) does the source give for `CC(=O)NC(CCCCn1cc(C[C@@H](NC(C)=O)C(=O)N[C@H](Cc2c[nH]c3ccccc23)C(=O)N[C@H](CCCCN)C(=O)N[C@@H](C(=O)N[C@H](CCCCN)C(=O)N[C@H](CC(C)C)C(N)=O)C(C)C)nn1)C(=O)NCCOCCOCCOCCC(=O)NCCNC(=O)CCCC[C@@H]1SC[C@@H]2NC(=O)N[C@@H]21` (stereo partly shown) [mono-L] here?
**A.** sufficient selectivity to immunoprecipitate Akt from OVCAR3 cancer cell lysate

**Q.** Which “immunoprecipitation of Akt” value does the source give for “Bi5: biligand candidate with hnGii-(D-Pra) as the 2° peptide arm (peptide 1 [dPra][dW][dK][dV][dK][dL]; peptide 2 [dH][dN]G[dI][dI][dPra]; not fully specified (bridges))” here?
**A.** did not show any Akt pulldown

**Q.** How did the “immunoprecipitation of Akt” value turn out when “Bi6: biligand candidate with hnGGd-(D-Pra) as the 2° peptide arm (peptide 1 [dPra][dW][dK][dV][dK][dL]; peptide 2 [dH][dN]GG[dD][dPra]; not fully specified (bridges))” was run?
**A.** did not show any Akt pulldown

**Q.** “N-tri2: N terminal triligand candidate: (D-Pra)-ssGry clicked to anchor-3N (peptide 1 [dW][dK][dV][dK][dL]; peptide 2 [dH][dN]G[dY][dF]; peptide 3 [dPra][dS][dS]G[dR][dY]; not fully specified (bridges); also: arms clicked by triazole to anchor-3N scaffold (not listed))” was tested. Which “immunoprecipitation of Akt” value did it give?
**A.** immunoprecipitate Akt2 from OVCAR3 cells

Same assay, conditions: eluents stained with pan-Akt antibody; listed as Bi2

**Q.** With `CC(=O)NC(CCCCn1cc(C[C@@H](NC(=O)CCCCn2cc(C[C@@H](NC(=O)[C@@H](Cc3ccccc3)NC(=O)[C@@H](Cc3ccc(O)cc3)NC(=O)CNC(=O)[C@@H](CC(N)=O)NC(=O)[C@H](N)Cc3c[nH]cn3)C(=O)O)nn2)C(=O)N[C@H](Cc2c[nH]c3ccccc23)C(=O)N[C@H](CCCCN)C(=O)N[C@@H](C(=O)N[C@H](CCCCN)C(=O)N[C@H](CC(C)C)C(N)=O)C(C)C)nn1)C(=O)NCCOCCOCCOCCC(=O)NCCNC(=O)CCCC[C@@H]1SC[C@@H]2NC(=O)N[C@@H]21` (stereo partly shown) [bi-L] as the compound, how does the “immunoprecipitation of Akt” value read?
**A.** best candidate

Same assay, conditions: eluents stained with pan-Akt antibody; listed as biligand

**Q.** Which “immunoprecipitation of Akt” value does the source give for `CC(=O)NC(CCCCn1cc(C[C@@H](NC(=O)CCCCn2cc(C[C@@H](NC(=O)[C@@H](Cc3ccccc3)NC(=O)[C@@H](Cc3ccc(O)cc3)NC(=O)CNC(=O)[C@@H](CC(N)=O)NC(=O)[C@H](N)Cc3c[nH]cn3)C(=O)O)nn2)C(=O)N[C@H](Cc2c[nH]c3ccccc23)C(=O)N[C@H](CCCCN)C(=O)N[C@@H](C(=O)N[C@H](CCCCN)C(=O)N[C@H](CC(C)C)C(N)=O)C(C)C)nn1)C(=O)NCCOCCOCCOCCC(=O)NCCNC(=O)CCCC[C@@H]1SC[C@@H]2NC(=O)N[C@@H]21` (stereo partly shown) [bi-L] here?
**A.** higher selectivity to immunopreciptate Akt from OVCAR3 cell lysate

These compounds were tested against Akt2 (Homo sapiens, UniProt P31751) (assay: Single component ELISA, PCC agent as capture or detection agent (relative affinity)). Settings: relative affinity; read-out: affinity by single-component immunoassay.
Chain of Akt2 (P31751 whole entry): as above
Assay type: binding
Set-up: purchased Abcam
Source text: FIG. 23: A. ELISA assays in which the PCC Agents are utilized as either as surface-localized capture agents (for N-tL, C-tL) or as the detection agent (for mono-L, bi-L). Such assays provide relative affinity measurements, which are given as EC50 values in the key. […] C. C-tL distinguishes the full length Akt2 from isoform proteins Akt1 and Akt3. D. The 32 amino acid long C terminal fragment from Akt2, Akt1 and Akt3. The hydrophobic motif is highlighted in blue. pS refers to phospho-serine. […] F. Selectivity assays: Biotinylated ligands or biotinylated pS473 antibody is immobilized on streptavidin-agarose and treated with OVCAR3 cell lysate. The eluents are stained with a pan-Akt antibody or pS473 Akt antibody.
1.25 μM biotinylated ligand was prepared by diluting the 1 mM stock in binding buffer (25 mM tris chloride, pH=7.4, 150 mM NaCl, 0.1% BSA, 0.05% Tween 20). The prepared ligand solution or 0.125% DMSO in buffer (buffer control) was immobilized on a High Capacity Streptavidin 96 well plate (Thermo Scientific). After washing away the excess ligand, the plate was blocked overnight with 1% BSA/25 mM tris chloride, pH=7.4/150 mM NaCl, 0.05% Tween 20. 2.5 μM solutions of the His6 (SEQ ID NO:28) tagged target phosphopeptide epitope Akt2 amino acids 450-481, His6 (SEQ ID NO:28) tagged Akt1 amino acids 449-480, His6 (SEQ ID NO:28) tagged Akt3 amino acids 448-479 were added to each of the wells. Following three washes with the binding buffer, the plate was treated for an hour with a 1:1000 dilution of anti His6 (SEQ ID NO:28) mouse monoclonal antibody. A 1:10,000 dilution of goat anti mouse antibody-Horse Radish Peroxide conjugate in binding buffer was added to the wells. The plates were washed four times, five minutes each, with 0.05% Tween 20/TBS (25 mM tris chloride, pH=7.5, 150 mM NaCl) and once with TBS (25 mM tris chloride, pH=7.5, 150 mM NaCl). Color was developed by adding TMB substrate (KPL) to each well. The reaction was quenched with 0.5 M H2SO4. The A450 measured on a 96-well plate reader. The Net A450 was obtained by subtracting the absorbance value for the blank control (no immobilized ligand) from each of the triplicate values obtained for the ligand-epitope interaction. The selectivity assay with full length His6 (SEQ ID NO:28) tagged Akt1, Akt2 and Akt3 was performed following the same protocol, using 25 nM protein instead of 2.5 μM His6 tagged peptide epitope.

**Q.** For `CC(=O)NC(CCCCn1cc(C[C@@H](NC(=O)CCCCn2cc(C[C@@H](NC(=O)[C@@H](Cc3ccccc3)NC(=O)[C@@H](Cc3ccc(O)cc3)NC(=O)CNC(=O)[C@@H](CC(N)=O)NC(=O)[C@H](N)Cc3c[nH]cn3)C(=O)O)nn2)C(=O)N[C@H](Cc2c[nH]c3ccccc23)C(=O)N[C@H](CCCCN)C(=O)N[C@@H](C(=O)N[C@H](CCCCN)C(=O)N[C@H](CC(C)C)C(N)=O)C(C)C)nn1)C(=O)NCCOCCOCCOCCC(=O)NCCNC(=O)CCCC[C@@H]1SC[C@@H]2NC(=O)N[C@@H]21` (stereo partly shown) [bi-L], which EC50 is on record?
**A.** ~1000 nM

**Q.** For `CC(=O)NC(CCCCn1cc(C[C@@H](NC(C)=O)C(=O)N[C@H](Cc2c[nH]c3ccccc23)C(=O)N[C@H](CCCCN)C(=O)N[C@@H](C(=O)N[C@H](CCCCN)C(=O)N[C@H](CC(C)C)C(N)=O)C(C)C)nn1)C(=O)NCCOCCOCCOCCC(=O)NCCNC(=O)CCCC[C@@H]1SC[C@@H]2NC(=O)N[C@@H]21` (stereo partly shown) [mono-L], which EC50 is on record?
**A.** ~3000 nM

Each compound was assayed on mouse anti His6 antibody and anti mouse-alkaline phosphatase (assay: Elimination of peptide binders to antibody, on-bead BCIP colour test). Settings: colour intensity of beads; clear beads are not background binders.
Assay type: binding
Description: Since a preclear screen was not performed against the mouse-Anti His6 antibody and the anti-mouse-alkaline phosphatase antibody, to eliminate peptide binders to the antibodies, all the dark colored peptide hits obtained in the earlier target screen were synthesized on Tentagel-S—NH2 resin. 10 beads of each sequence was taken in spinnex tubes, equilibrated in binding buffer, and then treated with a 1:1000 diluted solution of mouse anti His6 antibody (Abcam) for an hour at 4° C. Following three five minute washes with the binding buffer, a 1:10,000 diluted solution of anti mouse-alkaline phosphatase was added and the shaken for one hour at 4° C. The beads were washed three times for five minutes each with wash buffer 3, followed by three five minute washes with wash buffer 4. The beads were then developed in BCIP solution for thirty minutes and quenched with 0.1 N HCl. The color intensity of the different sequences is recorded in Table 5, along with the probability that the sequence is a binder to the protein and not a background binder (clear beads). The probability arises from the poor resolution of certain amino acid standards in the Edman sequencer during sequencing the hits from the N terminal triligand target screen.

**Q.** For “(D-Pra)-ssGry ([dPra][dS][dS]G[dR][dY]) [SEQ ID NO: 14, on-bead 3° peptide hit of N-tL screen]”, which Color is on record?
**A.** No color

**Q.** How did the Color turn out when “(D-Pra)-yyrfG ([dPra][dY][dY][dR][dF]G) [SEQ ID NO: 13, on-bead 3° peptide hit of N-tL screen]” was run?
**A.** No color

**Q.** “SEQ ID NO: 52: on-bead peptide D-Pra-yvyrf, hit of N-tL screen ([dPra][dY][dV][dY][dR][dF])” was tested. Which Color did it give?
**A.** light

**Q.** How did the Color turn out when “SEQ ID NO: 53: on-bead peptide D-Pra-sfrrf, hit of N-tL screen ([dPra][dS][dF][dR][dR][dF])” was run?
**A.** light

**Q.** Which Color does the source give for “SEQ ID NO: 58: on-bead peptide D-Pra-rriyy, hit of N-tL screen ([dPra][dR][dR][dI][dY][dY])” here?
**A.** dark

**Q.** Which Color does the source give for “SEQ ID NO: 60: on-bead peptide D-Pra-kfqfr, hit of N-tL screen ([dPra][dK][dF][dQ][dF][dR])” here?
**A.** light

**Q.** “SEQ ID NO: 61: on-bead peptide D-Pra-lfqfr, hit of N-tL screen ([dPra][dL][dF][dQ][dF][dR])” was tested. Which Color did it give?
**A.** light

**Q.** Which Color does the source give for “SEQ ID NO: 62: on-bead peptide D-Pra-kftfr, hit of N-tL screen ([dPra][dK][dF][dT][dF][dR])” here?
**A.** light

**Q.** For “SEQ ID NO: 63: on-bead peptide D-Pra-lftfr, hit of N-tL screen ([dPra][dL][dF][dT][dF][dR])”, which Color is on record?
**A.** light

**Q.** With “SEQ ID NO: 64: on-bead peptide D-Pra-rdrfr, hit of N-tL screen ([dPra][dR][dD][dR][dF][dR])” as the compound, how does the Color read?
**A.** No color

**Q.** “SEQ ID NO: 65: on-bead peptide D-Pra-rnrfr, hit of N-tL screen ([dPra][dR][dN][dR][dF][dR])” was tested. Which Color did it give?
**A.** medium
